Data from patent US20100113390A1, “OLIGOSACCHARIDES DERIVED FROM FUCOIDAN” (SUNTORY HOLDINGS LIMITED, priority 2007, published 2010).

Assays:
[1] = test system: α-glucosidase; experiment: Measurement of α-glucosidase activity (p-nitrophenyl-α-D-glucopyranoside substrate, A405 nm); format: biochemical, yeast; details: for α-glucosidase inhibitory activity (% inhibition): at 5 mg/ml (samples adjusted to 50 mg/ml H2O), duplicate, FIG. 29
Experimental: 1. 0.1 M sodium phosphate buffer (a mixture of 0.1 M NaH2PO4.2H2O and 0.1 M Na2HPO4.12H2O, adjusted to pH 7.0) was supplemented with 2 g/L bovine serum albumin (a product of Nacalai Tesque, Inc., Japan, F-V, pH 5.2, purity: 96%) and 0.2 g/L NaN3 (a product of Nacalai Tesque, Inc., Japan, reagent grade). As an enzyme solution, α-glucosidase (a product of Wako Pure Chemical Industries, Ltd., Japan, derived from yeast, 100 units/mg) was dissolved in the above buffer at 0.5 units/mg protein/ml (100 μg/20 ml). As a substrate solution, p-nitrophenyl-α-D-glucopyranoside (a product of Nacalai Tesque, Inc., Japan, reagent grade) was dissolved in the above buffer at 5 mM (7.525 mg/5 ml). 2. For use as samples, GF (I) purified in Example 3 was adjusted to 200 mg/ml H2O and diluted two-fold to give 6 dilutions. Using a 96-well microplate, the enzyme solution (45 μL) was added to each of the sample solutions (10 μL) and pre-incubated at 37° C. for 5 minutes. After addition of the substrate solution (45 μL), each sample was measured for absorbance A405 nm (A405 nm at 0 min) and, after incubation at 37° C. for 5 minutes, was then measured for absorbance A405 nm (A405 nm at 5 min). As a control, H2O was added in place of the samples and measured for absorbance. The difference in A405 nm from the control was calculated as % inhibition. Activity measurement was made in quadruplicate. 3. […] As comparative samples, X2 (xylobiose) and glucuronic acid (Sigma-Aldrich) were neutralized with NaOH and adjusted to 50 mg/ml H2O (calculated based on the amount of glucuronic acid). […] After addition of the substrate solution (45 μl), each of the samples was measured for absorbance A405 nm (A405 nm at 0 min) and, after incubation at 37° C. for 5 minutes, was then measured for absorbance A405 nm (A405 nm at 5 min). As a control, H2O was added in place of the samples, and the difference in A405 nm from the control was calculated as % inhibition. […]

[2] = target: T1, porcine pancreatic lipase (Sus scrofa, UniProt P00591); experiment: Measurement of lipase inhibitory activity (4-methylumbelliferone oleic acid ester, fluorescence); format: biochemical; details: at 4 mg/ml final concentration, FIG. 30
T1 construct: purchased SIGMA
T1 sequence (P00591 1-450): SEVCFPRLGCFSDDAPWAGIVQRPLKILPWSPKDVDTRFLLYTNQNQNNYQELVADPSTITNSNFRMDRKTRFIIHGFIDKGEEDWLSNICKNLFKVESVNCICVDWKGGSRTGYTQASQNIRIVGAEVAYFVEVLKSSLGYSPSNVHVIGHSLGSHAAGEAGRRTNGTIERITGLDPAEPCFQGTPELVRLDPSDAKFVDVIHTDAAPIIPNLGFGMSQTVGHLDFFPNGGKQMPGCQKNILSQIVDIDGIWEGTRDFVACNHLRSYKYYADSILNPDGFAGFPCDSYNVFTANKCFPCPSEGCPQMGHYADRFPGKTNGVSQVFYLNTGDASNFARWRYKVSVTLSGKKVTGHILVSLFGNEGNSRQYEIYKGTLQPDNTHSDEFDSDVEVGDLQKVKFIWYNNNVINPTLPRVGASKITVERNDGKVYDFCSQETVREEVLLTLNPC
Experimental: 1. In a 96-well flat-bottomed plate, GF (I) prepared in Example 3, as well as the GSFaF (VII)-containing fraction and the GSF fraction containing (V) and GSFF (VI) prepared in Example 4 were each adjusted to give a final concentration of 4 mg/ml (25 μl), followed by addition of 50 μl buffer (130 mM Tris-HCl buffer (pH 8.0, containing 150 mM NaCl and 1.36 mM CaCl2)) and 25 μl 4-methylumbelliferone oleic acid ester (SIGMA, final concentration: 100 μM). The plate was allowed to stand for 30 minutes at room temperature. Then, lipase (porcine pancreatic lipase, SIGMA) was added in a volume of 50 μl (final concentration: 100 U/ml) to initiate the reaction. 2. After 30 minutes, 100 μl citrate buffer (pH 4.2) was added to stop the reaction. The fluorescence intensity of 4-methylumbelliferone generated by the reaction (excitation wavelength: 355 nm, fluorescence wavelength: 460 nm) was measured with a fluorescence plate reader (Fluoroskan Asent CF, Labsystems). 3. As a control, water was used in place of the samples. As a blank, water was used in place of the samples and buffer was used in place of lipase. The following equation was used to calculate lipase inhibitory activity. 4. Calculation equation
Lipase inhibitory activity (%)=100−(A−B)/(C−B)×100
A: fluorescence intensity in sample, B: fluorescence intensity in blank, C: fluorescence intensity in control

α-glucosidase inhibitory activity (% inhibition) [1] [%] | α-glucosidase IC50 ([1]; GF (I) purified in Example 3, 6 two-fold dilutions, quadruplicate) [mg/mL] | inhibition at 4000 µg/mL [2] [%] | Compound
10.15 | – | – | OC1OC[C@@H](O[C@@H]2OC[C@@H](O)[C@H](O)[C@H]2O)[C@H](O)[C@H]1O (stereo partly shown) [X2, xylobiose]
– | 20.4 | 81 | CC1OC(O)C(OC2OC(C(=O)O)C(O)C(O)C2O)C(O)C1O [GF (I), α-D-GlcA-(1→2)-L-Fuc]
8 | – | – | O=C(O)[C@H]1OC(O)[C@H](O)[C@@H](O)[C@@H]1O (stereo partly shown) [glucuronic acid]
